Values quoted from earlier work as cited in article PMC11491004, “CHF6523 data suggest that the phosphoinositide 3-kinase delta isoform is not a suitable target for the management of COPD” (Respiratory Research, 2024).

How the values were obtained:
[1] = system: airway inflammation; design: method as in ref 12 = [12]; 12. Blomqvist S Andreasson T Arlbrandt S Bold P Bjorhall K Brülls M In vivo dual Pi3kγδ inhibition in a rat model of pulmonary inflammation - evidence of local therapeutic activity Am J Respir Crit Ca; conditions: cited from earlier work
[2] = target: T1, PI3Kδ (Homo sapiens, UniProt O00329); design: method as in ref 14 = [14]; 14. Wilson R Cahn A Montembault M Green J Musani N Begg M Safety, tolerability, pharmacokinetics (PK) and pharmacodynamics (PD) of single (SD) and repeat (RD) inhaled doses of a novel phosphoinositide; conditions: healthy volunteer study; Day 12; cited from earlier work
[3] = design: method as in PMID 34113095; conditions: cited from earlier work
[4] = system: sputum IL-6 and IL-8; design: method as in PMID 28823947; conditions: patients with COPD; cited from earlier work
[5] = system: sputum IL-5, IL-13, IL-6 or IL-8; design: method as in PMID 30217958; conditions: patients with asthma; cited from earlier work
[6] = target: T1, PI3Kδ; design: from tissue; host or cells: induced sputum of COPD patients (in vivo dosing by inhalation); method as in PMID 30886125; conditions: healthy smokers; cited from earlier work
[7] = target: T1, PI3Kδ; design: from tissue; host or cells: induced sputum of COPD patients (in vivo dosing by inhalation); method as in PMID 36841351; conditions: activated PI3Kδ syndrome; cited from earlier work

T1 sequence (O00329 whole entry): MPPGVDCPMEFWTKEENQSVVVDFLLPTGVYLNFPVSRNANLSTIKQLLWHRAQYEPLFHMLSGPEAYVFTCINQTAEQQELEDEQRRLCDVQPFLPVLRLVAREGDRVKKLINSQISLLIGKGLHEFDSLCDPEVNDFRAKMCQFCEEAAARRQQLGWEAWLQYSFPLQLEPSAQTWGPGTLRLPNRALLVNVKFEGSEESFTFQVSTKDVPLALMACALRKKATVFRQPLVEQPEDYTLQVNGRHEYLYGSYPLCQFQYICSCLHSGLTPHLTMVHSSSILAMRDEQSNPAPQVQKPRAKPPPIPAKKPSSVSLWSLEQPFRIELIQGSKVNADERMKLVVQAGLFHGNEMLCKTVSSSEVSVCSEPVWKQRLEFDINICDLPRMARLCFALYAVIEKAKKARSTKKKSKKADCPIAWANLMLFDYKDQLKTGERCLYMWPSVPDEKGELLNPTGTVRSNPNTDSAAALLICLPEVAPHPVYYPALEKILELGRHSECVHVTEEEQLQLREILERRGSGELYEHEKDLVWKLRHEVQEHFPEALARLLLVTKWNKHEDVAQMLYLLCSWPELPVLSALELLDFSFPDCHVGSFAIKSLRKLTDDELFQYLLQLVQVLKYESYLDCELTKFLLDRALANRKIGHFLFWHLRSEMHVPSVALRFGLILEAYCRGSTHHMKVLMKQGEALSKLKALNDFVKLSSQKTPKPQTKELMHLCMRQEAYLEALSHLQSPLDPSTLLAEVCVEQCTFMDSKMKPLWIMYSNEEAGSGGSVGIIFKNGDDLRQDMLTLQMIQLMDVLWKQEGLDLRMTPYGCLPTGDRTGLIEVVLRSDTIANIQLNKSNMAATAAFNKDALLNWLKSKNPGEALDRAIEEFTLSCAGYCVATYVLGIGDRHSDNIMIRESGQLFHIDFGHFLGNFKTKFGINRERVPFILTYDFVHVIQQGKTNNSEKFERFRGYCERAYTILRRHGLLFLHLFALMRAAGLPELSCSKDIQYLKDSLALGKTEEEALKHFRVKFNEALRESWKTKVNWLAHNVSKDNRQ
T1 sequence (P27986 whole entry partner): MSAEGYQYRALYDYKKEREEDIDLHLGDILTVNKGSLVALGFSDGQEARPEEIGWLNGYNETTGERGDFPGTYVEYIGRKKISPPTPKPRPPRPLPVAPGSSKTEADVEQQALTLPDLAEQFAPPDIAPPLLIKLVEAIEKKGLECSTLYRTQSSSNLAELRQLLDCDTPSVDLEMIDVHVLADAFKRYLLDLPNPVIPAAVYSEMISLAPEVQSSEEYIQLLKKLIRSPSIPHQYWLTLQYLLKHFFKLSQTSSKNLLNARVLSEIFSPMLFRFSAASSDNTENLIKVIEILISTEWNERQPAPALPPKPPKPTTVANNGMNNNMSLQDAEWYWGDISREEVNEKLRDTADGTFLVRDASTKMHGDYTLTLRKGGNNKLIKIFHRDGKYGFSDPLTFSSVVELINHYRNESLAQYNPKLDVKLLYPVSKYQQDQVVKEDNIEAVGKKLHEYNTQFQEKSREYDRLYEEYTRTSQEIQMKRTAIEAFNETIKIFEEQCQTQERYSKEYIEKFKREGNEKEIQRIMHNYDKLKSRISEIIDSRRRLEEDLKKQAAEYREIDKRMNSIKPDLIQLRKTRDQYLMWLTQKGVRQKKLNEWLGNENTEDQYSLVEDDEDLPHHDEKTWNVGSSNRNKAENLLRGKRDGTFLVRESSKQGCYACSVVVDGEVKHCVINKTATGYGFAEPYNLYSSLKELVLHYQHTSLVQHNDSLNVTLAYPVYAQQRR

## Cc1nc(Nc2cccc(N3CCCC3=O)n2)sc1-c1cc2c(c(S(C)(=O)=O)c1)C(=O)N([C@@H](C)C1CC1)C2 [AZD8154]
[1]
  Efficacy in a rat model of airway inflammation: demonstrated efficacy

## CC(C)N1CCN(Cc2cnc(-c3cc(-c4cccc5[nH]ccc45)cc4[nH]ncc34)o2)CC1 [nemiralisib]
[2]
  Reduction in PIP3: 35.7%
[3]; Phase IIb, patients with exacerbating COPD
  Primary and secondary endpoints: neither the primary nor secondary endpoints were met
[3]; experienced post-inhalation and dose-related
  Most common adverse event: cough
[4]
  Sputum IL-6 and IL-8 levels compared to placebo: did not significantly reduce
[5]
  Sputum IL-5, IL-13, IL-6 or IL-8 compared to placebo: did not yield statistically significant reductions
[6]
  Target engagement: demonstrated target engagement
[7]
  Changes in target engagement or downstream inflammatory markers in induced sputum: no meaningful changes
